Experimental data from ChEMBL document CHEMBL5465560, “Selectivity Literature for EUbOPEN Chemogenomic Library” (2024).
Each block holds one molecule with its values, some of them ahead of it.

What was measured:
[1] = biological target: T1, Serine/threonine-protein kinase ICK (Homo sapiens) (UniProt Q9UPZ9); assay: Selectivity interaction (LanthaScreen Eu Kinase Binding Assay) EUB0001632a ICK; conditions: at 10 µM
T1 sequence (whole entry): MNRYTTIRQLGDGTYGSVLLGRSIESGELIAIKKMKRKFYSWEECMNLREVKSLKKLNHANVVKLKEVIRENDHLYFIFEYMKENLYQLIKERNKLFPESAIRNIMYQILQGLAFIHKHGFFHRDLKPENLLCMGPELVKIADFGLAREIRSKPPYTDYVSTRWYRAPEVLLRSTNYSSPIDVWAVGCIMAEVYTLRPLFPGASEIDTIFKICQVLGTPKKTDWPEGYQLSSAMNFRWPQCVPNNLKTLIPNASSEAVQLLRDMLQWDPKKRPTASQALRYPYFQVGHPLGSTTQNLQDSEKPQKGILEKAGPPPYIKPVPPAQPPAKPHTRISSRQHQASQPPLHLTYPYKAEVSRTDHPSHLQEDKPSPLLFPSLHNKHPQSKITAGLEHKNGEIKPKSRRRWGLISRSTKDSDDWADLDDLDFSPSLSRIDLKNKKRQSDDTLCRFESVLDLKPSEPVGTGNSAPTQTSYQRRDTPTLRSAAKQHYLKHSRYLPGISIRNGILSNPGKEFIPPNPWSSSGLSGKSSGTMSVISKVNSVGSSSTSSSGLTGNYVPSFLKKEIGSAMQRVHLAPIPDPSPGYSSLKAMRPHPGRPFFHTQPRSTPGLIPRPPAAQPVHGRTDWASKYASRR

[2] = biological target: Aurora kinase B (Homo sapiens, UniProt Q96GD4); assay: Selectivity interaction (ActivX KiNativ screen (kinase selectivity in THP-1 cell lysates)) EUB0000639a AURKB; format: subcellular; conditions: lysate, at 0.01 µM
Chain of Aurora kinase B (Q96GD4 whole entry): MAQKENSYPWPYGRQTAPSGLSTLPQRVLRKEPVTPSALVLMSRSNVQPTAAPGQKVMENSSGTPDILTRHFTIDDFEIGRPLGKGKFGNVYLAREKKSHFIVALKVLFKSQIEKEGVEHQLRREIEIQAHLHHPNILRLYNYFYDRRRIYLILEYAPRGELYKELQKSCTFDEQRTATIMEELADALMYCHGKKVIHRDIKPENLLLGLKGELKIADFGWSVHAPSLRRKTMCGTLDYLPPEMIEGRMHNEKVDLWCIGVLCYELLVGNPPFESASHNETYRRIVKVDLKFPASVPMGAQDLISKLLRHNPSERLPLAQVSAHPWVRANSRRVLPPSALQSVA

[3] = biological target: Epidermal growth factor receptor (Homo sapiens, UniProt P00533); assay: Selectivity interaction (Kinase panel (Invitrogen)) EUB0000639a EGFR; conditions: at 200 nM
Chain of Epidermal growth factor receptor (P00533 whole entry): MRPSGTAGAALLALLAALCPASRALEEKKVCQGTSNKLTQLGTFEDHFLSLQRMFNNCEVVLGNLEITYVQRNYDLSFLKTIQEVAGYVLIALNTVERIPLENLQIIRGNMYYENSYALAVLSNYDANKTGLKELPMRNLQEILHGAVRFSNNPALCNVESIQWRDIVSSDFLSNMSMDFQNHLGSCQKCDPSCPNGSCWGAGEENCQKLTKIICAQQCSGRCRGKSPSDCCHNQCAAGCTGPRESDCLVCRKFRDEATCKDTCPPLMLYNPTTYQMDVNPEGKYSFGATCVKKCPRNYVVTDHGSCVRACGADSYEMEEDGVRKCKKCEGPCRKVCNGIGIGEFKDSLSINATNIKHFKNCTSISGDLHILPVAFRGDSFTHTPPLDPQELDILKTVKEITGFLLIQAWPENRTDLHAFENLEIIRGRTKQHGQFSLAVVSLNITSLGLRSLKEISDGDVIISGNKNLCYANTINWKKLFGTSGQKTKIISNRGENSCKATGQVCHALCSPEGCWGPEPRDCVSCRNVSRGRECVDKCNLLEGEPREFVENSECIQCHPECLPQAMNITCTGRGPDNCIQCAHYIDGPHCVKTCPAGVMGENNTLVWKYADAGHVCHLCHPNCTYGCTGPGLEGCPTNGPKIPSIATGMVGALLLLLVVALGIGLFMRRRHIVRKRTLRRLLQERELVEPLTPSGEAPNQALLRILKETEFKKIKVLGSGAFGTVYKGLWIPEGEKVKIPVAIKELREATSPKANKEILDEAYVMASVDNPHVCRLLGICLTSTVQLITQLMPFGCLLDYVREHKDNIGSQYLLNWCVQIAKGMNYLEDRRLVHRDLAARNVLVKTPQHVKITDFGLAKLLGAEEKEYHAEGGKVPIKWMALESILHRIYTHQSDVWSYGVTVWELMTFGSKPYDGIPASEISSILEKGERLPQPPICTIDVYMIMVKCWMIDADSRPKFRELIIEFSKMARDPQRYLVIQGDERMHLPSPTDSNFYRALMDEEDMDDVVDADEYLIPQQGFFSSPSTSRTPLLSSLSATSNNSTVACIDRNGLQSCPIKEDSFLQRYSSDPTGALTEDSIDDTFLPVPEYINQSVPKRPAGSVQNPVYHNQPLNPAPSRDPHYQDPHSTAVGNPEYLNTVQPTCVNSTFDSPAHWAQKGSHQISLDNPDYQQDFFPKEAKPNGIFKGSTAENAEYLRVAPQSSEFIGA

[4] = biological target: T2, Calcium/calmodulin-dependent protein kinase type IV (Homo sapiens) (UniProt Q16566); assay: Selectivity interaction (Kinase panel (DSF assay)) EUB0001559a CAMK4
T2 sequence (whole entry): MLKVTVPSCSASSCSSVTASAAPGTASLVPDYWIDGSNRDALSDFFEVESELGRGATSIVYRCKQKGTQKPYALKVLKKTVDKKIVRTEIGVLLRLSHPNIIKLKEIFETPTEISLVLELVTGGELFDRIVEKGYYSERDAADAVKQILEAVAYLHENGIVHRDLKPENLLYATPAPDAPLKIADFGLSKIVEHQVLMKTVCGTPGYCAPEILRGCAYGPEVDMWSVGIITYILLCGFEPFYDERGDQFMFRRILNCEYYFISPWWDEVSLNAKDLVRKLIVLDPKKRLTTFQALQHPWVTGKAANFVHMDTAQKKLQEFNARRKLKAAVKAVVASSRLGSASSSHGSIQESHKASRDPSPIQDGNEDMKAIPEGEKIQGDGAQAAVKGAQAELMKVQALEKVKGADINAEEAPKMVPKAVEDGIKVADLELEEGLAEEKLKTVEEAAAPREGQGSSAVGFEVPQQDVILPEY

[5] = biological target: T3, Phosphatidylinositol 5-phosphate 4-kinase type-2 beta (Homo sapiens) (UniProt P78356); assay: Selectivity interaction (KinomeScan (DiscoverX)) EUB0001049a PIP4K2B; conditions: at 1 µM
T3 sequence (whole entry): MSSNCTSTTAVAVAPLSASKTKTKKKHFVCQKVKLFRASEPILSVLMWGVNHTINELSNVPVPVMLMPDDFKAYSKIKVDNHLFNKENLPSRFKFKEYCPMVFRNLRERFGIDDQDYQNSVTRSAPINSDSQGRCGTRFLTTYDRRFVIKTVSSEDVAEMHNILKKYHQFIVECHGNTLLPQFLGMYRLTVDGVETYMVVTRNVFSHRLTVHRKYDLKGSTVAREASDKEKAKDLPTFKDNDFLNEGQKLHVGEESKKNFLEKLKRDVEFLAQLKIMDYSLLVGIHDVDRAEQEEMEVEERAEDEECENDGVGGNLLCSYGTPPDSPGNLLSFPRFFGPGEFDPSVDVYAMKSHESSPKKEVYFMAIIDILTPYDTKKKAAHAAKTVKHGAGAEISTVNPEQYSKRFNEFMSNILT

[6] = biological target: Wee1-like protein kinase 2 (Homo sapiens) (UniProt P0C1S8); assay: Selectivity interaction (KinomeScan (DiscoverX)) EUB0001049a WEE2; conditions: at 1 µM
Chain of Wee1-like protein kinase 2 (Homo sapiens) (P0C1S8 whole entry, looked up): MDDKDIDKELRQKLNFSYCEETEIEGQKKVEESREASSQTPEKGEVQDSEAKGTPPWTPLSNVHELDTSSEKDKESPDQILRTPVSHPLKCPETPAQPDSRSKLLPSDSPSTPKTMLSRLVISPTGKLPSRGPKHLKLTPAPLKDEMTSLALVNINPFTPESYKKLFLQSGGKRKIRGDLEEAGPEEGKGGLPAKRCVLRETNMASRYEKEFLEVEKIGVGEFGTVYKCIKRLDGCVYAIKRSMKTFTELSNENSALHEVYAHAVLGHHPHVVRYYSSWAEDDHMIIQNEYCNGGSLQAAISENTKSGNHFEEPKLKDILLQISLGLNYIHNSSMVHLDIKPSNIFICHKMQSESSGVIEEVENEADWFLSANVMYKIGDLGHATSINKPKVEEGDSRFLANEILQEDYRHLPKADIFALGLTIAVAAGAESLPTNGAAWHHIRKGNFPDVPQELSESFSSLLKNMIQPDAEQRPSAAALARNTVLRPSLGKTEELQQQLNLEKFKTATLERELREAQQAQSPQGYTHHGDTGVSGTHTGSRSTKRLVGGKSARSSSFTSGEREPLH

[7] = biological target: Tyrosine-protein kinase JAK2 (Homo sapiens, UniProt O60674); assay: Selectivity interaction (NanoBRET assay (HEK293T cells)) EUB0001558a JAK2; format: cell-based, HEK-293T
Chain of Tyrosine-protein kinase JAK2 (O60674 whole entry): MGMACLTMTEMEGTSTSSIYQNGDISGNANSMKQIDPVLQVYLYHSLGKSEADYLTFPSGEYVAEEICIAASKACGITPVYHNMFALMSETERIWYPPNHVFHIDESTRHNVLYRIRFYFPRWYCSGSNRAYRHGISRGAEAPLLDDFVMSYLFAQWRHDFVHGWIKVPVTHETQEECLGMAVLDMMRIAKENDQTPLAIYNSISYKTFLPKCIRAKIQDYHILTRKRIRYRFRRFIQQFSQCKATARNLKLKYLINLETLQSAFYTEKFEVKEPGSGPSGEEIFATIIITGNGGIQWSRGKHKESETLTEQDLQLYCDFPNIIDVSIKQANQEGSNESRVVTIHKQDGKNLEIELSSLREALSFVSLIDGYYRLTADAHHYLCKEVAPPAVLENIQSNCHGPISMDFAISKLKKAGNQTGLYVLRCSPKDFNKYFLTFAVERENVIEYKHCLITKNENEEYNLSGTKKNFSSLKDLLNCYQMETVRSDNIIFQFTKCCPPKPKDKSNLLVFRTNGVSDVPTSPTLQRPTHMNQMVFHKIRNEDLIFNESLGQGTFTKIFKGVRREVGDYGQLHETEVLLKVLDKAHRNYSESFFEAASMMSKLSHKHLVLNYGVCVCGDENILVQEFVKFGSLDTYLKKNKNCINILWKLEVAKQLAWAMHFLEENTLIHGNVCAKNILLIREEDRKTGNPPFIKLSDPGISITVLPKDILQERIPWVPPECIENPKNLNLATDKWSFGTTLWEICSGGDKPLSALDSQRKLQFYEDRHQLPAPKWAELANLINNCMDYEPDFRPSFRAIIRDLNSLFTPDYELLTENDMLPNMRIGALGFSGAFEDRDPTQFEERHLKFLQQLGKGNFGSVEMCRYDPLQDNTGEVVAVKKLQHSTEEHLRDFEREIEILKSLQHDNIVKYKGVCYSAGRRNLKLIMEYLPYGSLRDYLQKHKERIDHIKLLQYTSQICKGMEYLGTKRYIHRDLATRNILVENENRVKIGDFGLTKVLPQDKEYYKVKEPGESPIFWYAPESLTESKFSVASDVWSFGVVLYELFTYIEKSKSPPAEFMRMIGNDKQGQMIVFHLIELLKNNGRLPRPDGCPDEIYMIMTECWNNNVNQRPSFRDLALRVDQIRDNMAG

[8] = biological target: KCNE1 (Homo sapiens, UniProt P15382); assay: Selectivity interaction (Panel of kinases, GPCRs, ion channels and transporters (enzymatic assay)) EUB0000223bCl KCNE1
[9] = biological target: T4, Hormonally up-regulated neu tumor-associated kinase (Homo sapiens) (UniProt P57058); assay: Selectivity interaction (KinomeScan (DiscoverX)) EUB0001619a HUNK; conditions: at 1 µM
T4 sequence (whole entry): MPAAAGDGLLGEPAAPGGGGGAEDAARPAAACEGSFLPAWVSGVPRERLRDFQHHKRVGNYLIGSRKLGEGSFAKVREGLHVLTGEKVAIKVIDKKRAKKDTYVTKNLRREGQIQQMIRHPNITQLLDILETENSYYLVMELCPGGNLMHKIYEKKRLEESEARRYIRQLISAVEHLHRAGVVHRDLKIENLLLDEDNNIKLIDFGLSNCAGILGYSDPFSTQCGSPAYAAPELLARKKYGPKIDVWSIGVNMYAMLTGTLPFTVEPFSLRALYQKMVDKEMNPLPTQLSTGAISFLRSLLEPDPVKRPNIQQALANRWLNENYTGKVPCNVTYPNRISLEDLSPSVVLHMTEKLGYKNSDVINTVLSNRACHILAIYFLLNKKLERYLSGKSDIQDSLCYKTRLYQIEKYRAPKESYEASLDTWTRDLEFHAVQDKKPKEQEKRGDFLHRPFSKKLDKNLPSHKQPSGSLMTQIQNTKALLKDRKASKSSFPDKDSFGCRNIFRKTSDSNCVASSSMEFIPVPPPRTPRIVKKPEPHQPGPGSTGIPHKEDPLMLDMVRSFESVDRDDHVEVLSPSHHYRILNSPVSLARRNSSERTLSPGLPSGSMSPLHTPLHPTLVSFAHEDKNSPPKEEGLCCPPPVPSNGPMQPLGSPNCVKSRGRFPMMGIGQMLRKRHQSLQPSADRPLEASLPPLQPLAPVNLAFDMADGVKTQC

% of inhibition [1]: -3.44%
Structure (SMILES): Cn1cc(-n2cnc3c(NCc4nc5cc(Cl)c(Cl)cc5[nH]4)nc(N4CCOCC4)nc32)cn1

% of inhibition [2]: 4.9%
% of inhibition [3]: 1.86%
Structure (SMILES): CC[C@@H]1[C@H](F)C(=O)N[C@@H]1COc1nccc2cc(C(N)=O)c(OC)cc12 [ZIMLOVISERTIB]

dTM [4]: -0.4 K
Structure (SMILES): CN(C(=O)c1cnn2cccnc12)c1cc2c(cc1N1CCOCC1)C(=O)N(C[C@@H](F)C(C)(C)O)C2

Structure (SMILES): COc1cc(Nc2nc(C)cc(-c3cnn4nc(OC)ccc34)n2)cc(C(F)(F)F)c1
% of control [5]: 96%
% of control [6]: 100%

Structure (SMILES): CC(C)(O)[C@H](F)CN1Cc2cc(NC(=O)c3cnn4cccnc34)c(N3CCOCC3)cc2C1=O
EC50 [7]: > 50 µM

Structure (SMILES): COc1cc(C(=O)N2CC[C@@H](O)[C@@H](N)C2)cc2nc(-c3cc4ccccc4n3CC3CC3)n(C)c12
XC50 [8]: > 25.1 µM

Structure (SMILES): N#Cc1cccc(-c2c[nH]c3ncnc(N4CCOCC4)c23)c1
% of control [9]: 100%
